Assay results published in a melting point compilation (Tetko et al.; mined from patent text by program, amines drawn as free bases though some values may be those of a salt).

| SMILES | melting point |
| --- | --- |
| CC1C2=CCC3C(CCC4(C)C(O)CCC34)C2(C)CCC1O (stereo unspecified) | 210 to 214 °C |
| N#Cc1nccn1Cc1ccccc1 | 51 to 52 °C |
| CCCc1nc(OC)c(NC(=S)N2CCN(c3cccc(O)c3)CC2)cc1C | 160 to 162 °C |
| COCC(C)(COC)C(=O)O[C@H]1C[C@H](O)C=C2C=C[C@H](C)[C@H](CC[C@@H]3C[C@@H](O)CC(=O)O3)[C@H]21 | 122 to 123 °C |
| CNC(=O)c1ccccc1Nc1nc(Nc2cc3c(cc2OC)CCOC(=O)N3C)ncc1Br | 251 to 253 °C |
| CC(=O)N1CCN=C1Nc1cc(C)nn1-c1ccc(F)cc1 | 189 to 191 °C |
| Cc1cc(Cc2cc(C(C)(C)C)cc(C(C)(C)C)c2O)c(O)c(-n2nc3ccccc3n2)c1 | 171 °C |
| COc1ccc(N2CCOCC2)c2sc(C(=O)NC3CCN(C(=O)OC(C)(C)C)CCC3O)nc12 (stereo unspecified) | 71 to 73 °C |
| CNc1ccccc1C(=O)c1c(OC)cc(C)cc1OC | 215 °C |
| CCCCCCCCCCCCCCCCCCN(CCCCCCCCCCCCCCCCCC)c1ccc(C=Cc2ccc(S(C)(=O)=O)cc2)cc1 | 75 to 76 °C |
| CCOC(=O)CN(C(=O)C(F)(F)F)C(NC(C)C)P(=O)(O)OSCC (stereo unspecified) | 85 to 87 °C |
| C[C@H](/C=C\c1ccc(Cc2ccc(F)cc2)s1)N(O)C(N)=O | 123 to 124 °C |
| Cc1c(C)c(N2CCN(c3ccc(C(F)(F)F)cc3)CC2)c(C)c2c1OC(C)(C)C2N1CCCC1 (stereo unspecified) | 140 to 141 °C |
| Cc1nc2c(N)nc3ccccc3c2n1CCC(N)=O | 237 to 239 °C |
| OC1CSC(Oc2ccc(-c3ccnc(F)c3)nc2Cl)C(O)C1O (stereo unspecified) | 195 °C |
| Cc1nsc(OCC(Cl)(Cl)Cl)c1[N+](=O)[O-] | 60 to 61 °C |
| CC(C)C[C@H]1[C@@H]2C(=O)N(Cc3ccccc3)C(=O)[C@@H]2[C@H](c2ccc(C#N)cc2)N1C (racemic) | 173 to 174 °C |
| O=S1(=O)NCN(C2CC2)c2ccc(F)c(Cl)c21 | 198 to 200 °C |
| O=C(O)C(=O)CC(=O)c1cccn1Cc1cccc(Br)c1 | 164 to 166 °C |
| CN(C)CCC(=O)Nc1ccc2[nH]c3ccc(NC(=O)CCN(C)C)cc3c(=O)c2c1 | > 320 °C |
| Cn1nc(-c2c(NCc3ccccn3)nc(N)nc2-c2ccccc2)ccc1=O | 248 to 250 °C |

| SMILES | melting point |
| --- | --- |
| O=C(C[C@@H](CCCC1CCCCC1)c1nc(CNC2CCCCC2)no1)NO | 127 °C |
| Cc1ccc(C(=O)C2CCN(CCc3c[nH]c4ccccc34)CC2)cc1C | 172 to 173 °C |
| Cc1ccc(C(=O)c2ccc(Cc3ccc(N)cc3)n2C)c(C)c1 | 108 °C |
| OCCc1nccn1CCCCc1ccc(OCc2coc(/C=C/c3ccc(F)cc3F)n2)cc1 | 93 to 95 °C |
| N#CC(=O)c1ccccc1CF | 41 °C |
| CN1c2ccc(C=C3SC(=O)NC3=O)cc2CCC1Cc1ccccc1 (stereo unspecified) | 214 to 217 °C |
| CN(C(c1ccccc1)c1ccccc1)S(=O)(=O)CC#N | 104 to 107 °C |
| CN(C)CCCC(c1ccncc1)S(=O)(=O)c1ccc(Cl)cc1 (stereo unspecified) | 78 to 80 °C |
| COC(=O)c1cnn(-c2c(Cl)cc(Cl)cc2Cl)c1N | 179 to 180 °C |
| CC(C)NC(=O)[C@@H]1CCCN1C(=O)[C@H](C)NC(=O)OCc1ccccc1 | 124 to 126 °C |
| COc1ccc(CNC(=O)c2cc3c(=O)n(Cc4ccc(C(=O)O)cc4)cnc3cn2)cc1 | 245 to 246 °C |
| CS(=O)(=O)c1ccc(-c2cnn(Cc3ccccc3)c(=O)c2-c2ccc(Cl)c(Cl)c2)cc1 | 161 to 163 °C |
| Cc1c(-c2ccc(F)cc2)n(Cc2ccc(OCCBr)cc2)c2ccc(OCc3ccccc3)cc12 | 114 to 116 °C |
| CN1CCN(C(=O)N2CCN(C(=O)OC(C)(C)C)CC2)CC1 | 130 °C |
| CN(C)C1(c2ccc(F)cc2)CCC(=CC(=O)N2CCC(c3c[nH]c4ccccc34)C2)CC1 (stereo unspecified) | 109 to 112 °C |
| C=Cc1ccc(NC(=O)OC)nc1 | 146 to 148 °C |
| CCOC(=O)C1=C(N)N=C(SCC)C(C(=O)OCC)C1c1cccc(C#N)c1 (stereo unspecified) | 153 °C |
| O=C1COC(Nc2ccccc2)=C1C(=O)Nc1ccccc1 | 182 to 184 °C |
| Cc1nc(N2CCN(CC(C)C)C2=O)sc1C(N)=O | 212 to 215 °C |
| CCOC(=O)COc1ccc([N+](=O)[O-])cc1OC | 87 to 88 °C |
| Fc1ccc(-c2c3cccc(C(F)(F)F)c3nn2Cc2ccc(F)cc2Cl)cc1 | 78 °C |

Next, values leading:

| melting point | SMILES |
| --- | --- |
| 191 to 193 °C | CCOC(=O)Nc1ccc2nc(OCC)oc(=O)c2c1 |
| 127 to 130 °C | COCC1CCCN1S(=O)(=O)c1cc2c(cc1Cl)N1CCCN=C1C2=O (stereo unspecified) |
| 207 to 211 °C | Cc1nccn1-c1ccc(-c2cnc([C@H](Cc3ccccn3)N(C=O)c3cc4ccccc4[nH]3)n2C)cc1 |
| 140 to 141 °C | Cc1c(NC(=O)c2ccc(OC[C@@H]3CCCO3)cc2)ccc2cc(CN3CCC(C)(O)CC3)n(C)c12 |
| 150 °C | O=C1C(=Cc2ccccc2)C(=O)c2ccccc21 |
| 188 to 191 °C | CN(C)c1ccc(NC(=O)N(CC2CCC(CN(C(=O)Nc3ccc(N(C)C)cc3)C3CC4CCC3C4)CC2)C2CC3CCC2C3)cc1 (stereo unspecified) |
| 158 to 160 °C | COCCOCCN1C(=O)C2(COc3cc4c(cc32)OCCO4)c2c(OC)cc(OC)cc21 (stereo unspecified) |
| 95 to 97 °C | CCNC(=O)n1nc(Oc2ccc([N+](=O)[O-])c(C(F)(F)F)c2)cc1C |
| 205 to 207 °C | N#Cc1cccc2c1NC(=O)C21COc2cc3c(cc21)OCO3 (stereo unspecified) |
| 168 to 169 °C | CC1(C)CCC(C)(C)c2cc(C(=O)CNc3ccc(C(=O)O)cc3)ccc21 |
| 205 to 207 °C | O=C1Cc2cc3c(cc2C(c2ccc(F)cc2)=NN1)OCO3 |
| 75 to 77 °C | Cc1ccc(S(=O)(=O)OC(C)C(=O)N2CCOCC2)cc1 (stereo unspecified) |
| 130 °C | C[C@@]1(c2ccccc2)OC(c2ccccc2)=NC[C@H]1O (racemic) |
| 128 to 130 °C | NC(=O)N(O)Cc1ccc(OCc2coc(-c3ccc(C(F)(F)F)cc3)n2)cc1 |
| 90 to 92 °C | CCCOc1ccc(-c2scc(-c3ccccc3OC(F)(F)F)c2CC(=O)N=C(N)N)cc1 |
| 181 °C | Cn1c(C(F)(F)F)cc(=O)n(-c2cc(Oc3ccc[nH]c3=O)c(Cl)cc2F)c1=O |
| 123 to 124 °C | CSC(=NC(=O)OC(C)(C)C)NC(=O)OC(C)(C)C |
| 115 to 116 °C | CC1(C)CC(OC(=O)c2ccccc2)CC(C)(C)N1OCC=Cc1ccccc1 |
| 130 to 138 °C | CCCCc1nc(C(C)(C)O)c(C(N)=O)n1Cc1ccc(-c2ccccc2C(=O)O)cc1 |
| 207 to 209 °C | C=Cc1ccc(CSc2ccccc2C(=O)O)cc1 |
| > 300 °C | CC(=O)NCc1cc(Br)cc2[nH]c(=O)c(=O)[nH]c12 |
| 236 to 238 °C | COc1ccccc1C(=O)NCc1cccc2c1CN(C1CCC(=O)NC1=O)C2=O (stereo unspecified) |
| 207 to 209 °C | CCOC(=O)c1nc(-c2ccsc2)n(-c2cccc(Cl)c2F)c1-c1ccc(F)c(Cl)c1 |
| 127 to 129 °C | Cc1cc(Cn2cc(C(F)(F)C(F)(F)F)c(C(F)(F)C(F)(F)F)n2)ccc1NC(=O)c1cccc(Br)c1C(=O)N[C@@H](C)CS(C)=O (stereo partly specified) |
| 172 to 174 °C | NN(CCO)c1ccc(-c2ccc(Cl)cc2)nn1 |
| 214 to 215 °C | CC(=O)Nc1ccc(C(=O)O)cc1NC(=O)CO |
| 196 to 201 °C | COc1cc(NC(=O)C#Cc2ccc(C(F)(F)F)cc2Cl)ccc1OCCN1CC(C)CC(C)C1 (stereo unspecified) |

| melting point | SMILES |
| --- | --- |
| 200 to 206 °C | CC(=O)Nc1c(CC(=O)O)c2ccccc2n1C |
| 134 to 136 °C | O=c1c2ccccc2n(Cc2ccccc2)c2cc(Cl)ccc12 |
| 196 to 198 °C | O=C(O)Cc1ccc(NC(=O)C(COc2ccc(Cl)cc2)NS(=O)(=O)c2ccc(I)cc2)cc1 (racemic) |
| 146 °C | COc1cc(N)c(Cl)cc1C(=O)NC1CCN(CCC(O)C(=O)c2ccc(F)cc2)CC1OC (stereo unspecified) |
| > 250 °C | NC(=O)C=Cc1ccc(NC(=O)C=C2CC(C(=O)OCc3ccccc3)Nc3cc(Cl)cc(Cl)c32)cc1 (racemic) |
| 226 to 228 °C | CC(=O)Nc1ccc(Sc2cccn3nc(Nc4ccc(C5CCN(C(=O)OC(C)(C)C)CC5)cc4)nc23)cc1 |
| 198 to 201 °C | Nc1ncnc2c1ncn2[C@@H]1O[C@H](CSCCO)[C@@H](O)[C@H]1O |
| 145 °C | C=CCOc1ccc(C[C@H](N)C(=O)NC(=O)OC(C)(C)C)cc1 |
| 164 to 165 °C | COc1ccc(C(=O)Nc2cc(NC(=O)c3ccc(N(C)CCCN(C)C)cc3)ccc2C)cc1OC |
| 50 to 52 °C | COCCOc1nc(Cl)ncc1Cc1ccc(C)nc1 |
| 128 to 130 °C | CC(C)(C(=O)O)c1ccc(OCc2ccccc2)cc1 |
| > 300 °C | NC(=O)c1ccc(-c2cc3cc(C4=NNC(=O)CC4)ccc3[nH]2)cc1 |
| 156 to 157 °C | O=C1c2ccccc2C(=O)N1c1cccnc1Cl |
| 123 to 124 °C | O=c1ccn(-c2ccccc2OC(F)F)nc1-c1ccnn1-c1ccccc1 |
| 87 to 89 °C | CC1(C)CC(=O)C(S(=O)(=O)Cc2ccccc2)=C(O)C1 |
| 247 to 249 °C | COc1cccc(Nc2ncc(C(=O)O)c(=O)[nH]2)c1 |
| 175 to 177 °C | Cc1cc2ncn(Cc3ccc([N+](=O)[O-])cc3)c2cc1C |
| 267 to 268 °C | CNC(=O)c1ccccc1Nc1nc(Nc2ccc3c(c2)CNC(=O)CCN3)ncc1Cl |
| 128 to 130 °C | NC(=S)NN=C(CCCCl)c1ccccc1 |
| 65 to 70 °C | CN(C)CCNC(=O)c1cccc(-c2ccnc(C(=O)N(O)Cc3ccccc3)c2)c1 |
| 76 to 78 °C | COC(=O)[C@@]1(C)Oc2ccccc2N(C)C1=O |
| 145 to 146 °C | CCC(O)c1cc2cc(O)c(Cl)c(Cl)c2s1 (stereo unspecified) |
| 209 to 211 °C | NC(N)=Nc1nc(-c2cccc(CSc3nc4ccccc4[nH]3)n2)cs1 |
| 144 to 145 °C | CC(C)(C)c1cc(C(=NNc2ccccc2)c2ccccc2)cc(C(C)(C)C)c1O |
| 149 to 150 °C | CC(=O)N1CCN(Cc2cnc(-c3cc4cccc(NS(=O)(=O)c5cccs5)c4[nH]3)s2)CC1 |
| 162 to 164 °C | COc1cc2c(NC3CCCC3)c(C#N)cnc2cc1F |
| 112 to 115 °C | O=C(SCCCN1C(=O)NCC1c1ccccc1)c1ccccc1 (stereo unspecified) |
